From patent US20140227289A1, “COMPOUNDS AND METHODS FOR TREATING INSULIN RESISTANCE SYNDROME” (priority 2011, published 2014)

Assays:
human AGS cells = test: Quantitative RT-PCR of FOXO target mRNAs in human AGS cells under ER stress; assay type: cell-based
Experimental: (§1) The expression of certain mRNAs was measured by quantitative reverse transcription polymerase chain reaction (RT-PCR). In this example, the mRNA was extracted and purified using RNeasy Mini Kit (Qiagen, Netherlands) with DNase to eliminate genomic DNA contamination. Reverse transcription to synthesize the first strand utilized oligo-dT primers. The mRNAs measured are known FOXO targets: […] (CHOP), Bim (anti- or pro-apoptotic regulators), Growth Arrest and DNA Damage gene (GADD45) and PERK. Bip2, which is not a FOXO target, was also measured as a control. Results were normalized to Kinesin mRNA.
Dimethyl sulfoxide (DMSO)-treated human AGS cells were used as a control, denoted as “ctrl”. The human AGS cells were grown in Roswell Park Memorial Institute (RPMI) media supplemented with 10% FBS, and treated with 10 μg/ml tunicamycin dissolved in DMSO at 1 mg/ml for 4 hours to induce ER stress. The tunicamycin treated cells are denoted as “TM”.
Quantitative RT-PCR was performed to show the relative level of the indicated human mRNA targets. The results are shown in FIG. 5A where normalized levels of mRNA transcripts were measured for the “TM” cells compared to the “ctrl” cells. […] It can be concluded that ER stress induces the expression of Bip2, CHOP, Bim and GADD45.
(§2) The tunicamycin treated (“TM”) cells were further treated with siRNA treatment to deplete PERK from human AGS cells. The siRNA sequence used was 5′-[…]-3′ (SEQ ID NO: 1). The siRNA was transfected into cells using HiPerFect reagent (Qiagen, Netherlands) for 3 days before tunicamycin treatment. The PERK-depleted cells are denoted as “PERK RNAi+TM”.
(§3) Quantitative RT-PCR was performed to show the relative level of the indicated human mRNA targets. The results are shown in FIG. 5B where normalized levels of the target mRNA transcripts were measured for the “TM” cells compared with the “PERK RNAi+TM” cells. The levels of these target mRNAs in PERK-depleted (“PERK RNAi+TM”) cells were normalized to the levels of tunicamycin-treated (“TM”) control cells.

PERK = test: siRNA depletion of PERK in human AGS cells, quantitative RT-PCR; assay type: cell-based; conditions: siRNA transfected 3 days before tunicamycin treatment
Experimental: as §1, §2, §3

HEPG2 hepatocyte cells = test: Expression of FOXO targets in serum starved, PI3K inhibited HEPG2 hepatocyte cells; assay type: cell-based, human; conditions: serum starved+LY+PERK inhibition vs serum starved+LY
Experimental: To test the effects of PERK inhibition on endogenous Foxo1 targets, the cells were serum starved to remove growth factors and treated with the PI3K inhibitor LY294002 (50 μM) to further reduce AKT activity (“serum starved+LY”) for 4 hours. This treatment can be viewed as a model for extreme insulin resistance, in that it removes the capacity of the cell to respond insulin signaling by activating AKT. Control cells were grown in DMEM supplemented with 10% FBS (“control with serum”). The endogenous human FOXO targets are BIM gene (a pro-apoptotic member of the BCL-2 protein family), Cyclin G2 gene (encoding a cyclin that blocks cell cycle entry), insulin receptor substrate 2 gene (IRS-2; encoding a cytoplasmic signaling molecule that mediates effects of insulin), p27KIP1 gene (encoding a cell cycle regulatory protein), pyruvate dehydrogenase lipoamide kinase isozyme 4 gene (PDK4; encoding a protein that inhibits the pyruvate dehydrogenase complex), phosphoenolpyruvate carboxykinase 2 (PCK2; encoding a mitochondrial enzyme), p21 gene (encoding a cyclin-dependent kinase inhibitor) and insulin receptor gene (INSR). The rp132 gene (a ribosomal protein gene) and the mActin gene (encoding a muscle-specific type actin) are not FOXO targets and were used as controls. […] Example 11A was repeated with HEPG2 hepatocyte cells instead.

human Foxo1 = test: Foxo1 luciferase reporter assay in human H1299 cells; assay type: cell-based; conditions: 1 μM
Experimental: Human H1299 cells were transfected to express human Foxo1 (“FOXO1”) and co-transfected to express PERK (“FOXO1+PERK”). The transfected H1299 cells were treated with 1 μM PERK kinase inhibitor (“FOXO1+inhibitor” and “FOXO1+PERK+inhibitor”). The PERK kinase inhibitor has the chemical formula: 5-Bromo-N4-2-pyridinyl-N2-[3-(1,2,3,6-tetrahydro-4-pyridinyl)-1H-indol-5-yl]-2,4-pyrimidinediamine. The activity of the Foxo1 luciferase reporter gene was then measured in terms of normalized IRS-luciferase levels.

HEPG2 liver cells = test: Foxo1 target gene expression in palmitate treated (insulin resistant) HEPG2 liver cells; assay type: cell-based, human; conditions: palmitate treated cells further treated with PERK kinase inhibitor
Experimental: HEPG2 liver cells were treated with 0.75 mM of palmitate, a saturated fatty acid, for 17 hours to induce insulin resistance, and the effects of PERK inhibition were assessed by monitoring Foxo1 target gene expression. The Foxo1 target genes are pyruvate dehydrogenase lipoamide kinase isozyme 4 gene (PDK4; encoding a protein that inhibits the pyruvate dehydrogenase complex) and phosphoenolpyruvate carboxykinase 1 (PCK1; encoding […]).
The results are shown in FIG. 12A, where the data was normalized to Kinesin mRNA levels and to the level of the rp132 control mRNAs.
The palmitate treated cells were further treated by inhibiting PERK kinase inhibitor 5-Bromo-N4-2-pyridinyl-N2-[3-(1,2,3,6-tetrahydro-4-pyridinyl)-1H-indol-5-yl]-2,4-pyrimidinediamine.
The results are shown in FIG. 12B, where the data was normalized to Kinesin mRNA levels and to the level of the rp132 control mRNAs. It can be seen that PERK inhibition decreased the expression of the Foxo1 targets, PDK4 and PCK1.

MCF-7 cells = test: Expression of endogenous Foxo1 targets in serum starved, PI3K inhibited MCF-7 cells; assay type: cell-based, human; conditions: serum starved+LY+PERK inhibition vs serum starved+LY
Experimental: To test the effects of PERK inhibition on endogenous Foxo1 targets, the cells were serum starved to remove growth factors and treated with the PI3K inhibitor LY294002 (50 μM) to further reduce AKT activity (“serum starved+LY”) for 4 hours. This treatment can be viewed as a model for extreme insulin resistance, in that it removes the capacity of the cell to respond insulin signaling by activating AKT. Control cells were grown in DMEM supplemented with 10% FBS (“control with serum”). The endogenous human FOXO targets are BIM gene (a pro-apoptotic member of the BCL-2 protein family), Cyclin G2 gene (encoding a cyclin that blocks cell cycle entry), insulin receptor substrate 2 gene (IRS-2; encoding a cytoplasmic signaling molecule that mediates effects of insulin), p27KIP1 gene (encoding a cell cycle regulatory protein), pyruvate dehydrogenase lipoamide kinase isozyme 4 gene (PDK4; encoding a protein that inhibits the pyruvate dehydrogenase complex), phosphoenolpyruvate carboxykinase 2 (PCK2; encoding a mitochondrial enzyme), p21 gene (encoding a cyclin-dependent kinase inhibitor) and insulin receptor gene (INSR). The rp132 gene (a ribosomal protein gene) and the mActin gene (encoding a muscle-specific type actin) are not FOXO targets and were used as controls. […]

human Foxo1 (human) = human Foxo1 (human) (UniProt Q12778); test: cell-based or functional assay
Chain of UniProt Q12778 (Q12778 whole entry): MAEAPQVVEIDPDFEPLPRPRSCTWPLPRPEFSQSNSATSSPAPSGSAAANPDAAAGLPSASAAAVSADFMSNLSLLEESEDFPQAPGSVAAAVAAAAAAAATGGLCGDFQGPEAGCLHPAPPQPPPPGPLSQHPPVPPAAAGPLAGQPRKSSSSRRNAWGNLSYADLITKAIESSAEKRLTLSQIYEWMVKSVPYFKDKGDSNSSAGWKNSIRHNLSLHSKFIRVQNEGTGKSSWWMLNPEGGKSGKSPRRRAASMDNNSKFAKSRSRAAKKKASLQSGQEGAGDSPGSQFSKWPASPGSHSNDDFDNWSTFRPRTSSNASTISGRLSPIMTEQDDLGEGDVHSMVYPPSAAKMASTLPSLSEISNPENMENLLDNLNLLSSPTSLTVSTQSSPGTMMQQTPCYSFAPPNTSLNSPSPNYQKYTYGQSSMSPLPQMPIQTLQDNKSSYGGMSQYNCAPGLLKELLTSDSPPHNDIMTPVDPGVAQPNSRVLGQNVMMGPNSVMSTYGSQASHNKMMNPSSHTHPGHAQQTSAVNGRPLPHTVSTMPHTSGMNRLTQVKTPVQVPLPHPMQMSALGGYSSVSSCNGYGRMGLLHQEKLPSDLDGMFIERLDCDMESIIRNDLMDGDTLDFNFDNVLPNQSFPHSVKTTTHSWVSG

FOXO-GFP = FOXO-GFP subcellular localization assay in Drosophila S2 cells; assay type: cell-based; conditions: 10 μg/ml of insulin for 30 min, serum free medium
Experimental: A FOXO-green fluorescent (GFP) fusion protein was expressed in Drosophila S2 cells by transient transfection. The Drosophila cells were grown in serum free medium and deprived of insulin. The transfected cells were treated with 10 μg/ml of insulin for 30 min and the subcellular localization of FOXO-GFP was scored by obtaining images of the FOXO-GFP expressing cells. The insulin treated cells were named sample (b). A control sample (a) was obtained by having no insulin treatment to the transfected cells. In sample (c), ER stress was induced by RNA interference (RNAi) to disrupt endoplasmic-reticulum-associated-protein degradation (ERAD) machinery. The disruption of ERAD machinery was done by treatment of dsRNA to deplete HMG-CoA reductase degradation protein 3 (Hrd3), thereby inducing ER stress. Thereafter, the cells were treated with insulin 4 days after the dsRNA treatment. In sample (d), ER stress was induced by dsRNA treatment to deplete Hrd3. PERK protein was also depleted using dsRNA treatment. Thereafter, the cells were treated with insulin 4 days after the dsRNA treatment.
The results are shown in FIG. 2, where N means predominantly nuclear, C means predominantly cytoplasmic and CN means both nuclear and cytoplasmic. […]

[1] = PERK RNAi+TM cells compared with TM cells

Molecule: 5′-CAAACUGUAUAACGGUUUATT-3′ [PERK RNAi]
- degree of induction of Foxo1 targets CHOP, Bim and GADD45 (human AGS cells; [1]): reducing the degree of induction
- levels of Bip2 transcripts (not a FOXO target) (human AGS cells; [1]): comparable
- decrease of PERK levels compared to TM cells (PERK): more than 80%

Molecule: Brc1cnc(Nc2ccc3[nH]cc(C4=CCNCC4)c3c2)nc1Nc1ccccn1 [PERK kinase inhibitor, 5-Bromo-N4-2-pyridinyl-N2-[3-(1,2,3,6-tetrahydro-4-pyridinyl)-1H-indol-5-yl]-2,4-pyrimidinediamine]
- expression of rp132 and mActin (not FOXO target genes) (HEPG2 hepatocyte cells): did not reduce
- target genes expression (p27, PDK, Cyclin G, PCK2, p21, INSR) (HEPG2 hepatocyte cells): reduced the target genes expression
- level of Foxo1 activity with co-expressed PERK (normalized IRS-luciferase levels) (human Foxo1; FOXO1+PERK vs FOXO1+PERK+inhibitor): reduced the level of Foxo1 activity
- activity of Foxo1 alone (normalized IRS-luciferase levels) (human Foxo1; FOXO1 vs FOXO1+inhibitor): did not affect
- expression of the Foxo1 targets PDK4 and PCK1 (HEPG2 liver cells): decreased
- levels of rp123 and mActin (not Foxo1 targets) (HEPG2 liver cells): not substantially altered
- target genes expression (BIM, Cyclin G2, IRS-2, p27KIP1, PDK4) (MCF-7 cells): reducing the target genes expression

Molecule: human protein kinase RNA-like endoplasmic reticulum kinase (PERK) protein (from UniProt Q9NZJ5 30-1116) (enzyme)
- normalized luciferase levels of the human Foxo1 luciferase reporter (human Foxo1 (human)): 2 fold

Molecule: insulin
- location of FOXO-GFP both nuclear and cytoplasmic (FOXO-GFP): about 30 % of cells
- location of FOXO-GFP cytoplasmic (FOXO-GFP): about 70 % of cells

Molecule: tunicamycin [TM, reference compound]
- levels of Bip2, CHOP, Bim and GADD45 mRNA transcripts compared to ctrl cells (human AGS cells; 10 μg/ml tunicamycin for 4 hours, normalized to Kinesin mRNA): significantly higher
